From ChEMBL document CHEMBL1201862, “PubChem BioAssay data set” (2004)
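Dose response: 5 concentrations. Exposure: 48 h. Format: 96-well plates. Endpoint: linear interpolation; highest concentration if not reached. Abbreviation: GI50, concentration required for 50% inhibition of growth.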 Active and inactive are the calls of the source. No stated cut-off is given here; in the data, active = GI50 up to about 1.1 µM and inactive = higher.

Tests used:
Assay in all cases: NCI tumour cell line growth inhibition, 48 h
786-0 = test system: 786-0
ACHN = test system: ACHN
COLO 205 = test system: COLO 205
HL-60 = test system: HL-60
HOP-62 = test system: HOP-62
HOP-92 = test system: HOP-92
MDA-MB-435 = test system: MDA-MB-435
NCI-H226 = test system: NCI-H226
NCI-H522 = test system: NCI-H522
NCI/ADR-RES = test system: NCI/ADR-RES
OVCAR-8 = test system: OVCAR-8
PC-3 = test system: PC-3
SF-539 = test system: SF-539
SK-MEL-5 = test system: SK-MEL-5
SNB-19 = test system: SNB-19
SW-620 = test system: SW-620
U-251 = test system: U-251
UO-31 = test system: UO-31
SNB-75 = test system: SNB-75

Measured: GI50

O=C1OC(=O)C(=C\c2ccc3c(c2)OCO3)/C1=C/c1ccc2c(c1)OCO2
inactive: 786-0 > 100 µM | ACHN > 100 µM | COLO 205 > 100 µM | HL-60 44.8 µM | HOP-62 > 100 µM | HOP-92 > 100 µM | MDA-MB-435 > 100 µM | NCI-H226 > 93.5 µM | NCI-H522 36.1 µM | NCI/ADR-RES > 100 µM | OVCAR-8 > 84.5 µM | PC-3 > 100 µM | SF-539 > 100 µM | SK-MEL-5 > 100 µM | SNB-19 > 100 µM | SW-620 > 100 µM | U-251 > 80.7 µM | UO-31 > 100 µM

O=C(c1ccccc1)C(C(=O)c1ccccc1)c1nc2ccccc2sc1=O
inactive: 786-0 12.1 µM | ACHN 9.84 µM | COLO 205 12.5 µM | HL-60 > 25 µM | HOP-62 9.59 µM | HOP-92 2.72 µM | MDA-MB-435 10.4 µM | NCI-H226 7.08 µM | NCI-H522 9.57 µM | NCI/ADR-RES 10.5 µM | OVCAR-8 9.29 µM | PC-3 12.9 µM | SF-539 17.1 µM | SK-MEL-5 15.6 µM | SNB-19 18.5 µM | SW-620 15.9 µM | U-251 5.73 µM | UO-31 10.4 µM

Cc1ccc(S(=O)(=O)N/N=C2/CCCOC2)cc1
inactive: 786-0 > 100 µM | ACHN > 100 µM | COLO 205 > 100 µM | HL-60 > 100 µM | HOP-62 > 100 µM | HOP-92 > 100 µM | MDA-MB-435 > 100 µM | NCI-H226 > 100 µM | NCI-H522 > 100 µM | NCI/ADR-RES > 100 µM | OVCAR-8 > 100 µM | PC-3 > 100 µM | SF-539 > 100 µM | SK-MEL-5 > 100 µM | SNB-19 > 100 µM | SW-620 > 100 µM | U-251 > 100 µM | UO-31 > 100 µM

Cc1cn2c(/C=C3/C(=O)Nc4ccccc43)c(-c3ccccc3)nc2s1
inactive: 786-0 17.2 µM | ACHN 32.2 µM | COLO 205 > 100 µM | HL-60 > 100 µM | HOP-62 38.5 µM | HOP-92 36.5 µM | MDA-MB-435 > 100 µM | NCI-H522 > 100 µM | NCI/ADR-RES 37.5 µM | OVCAR-8 54.3 µM | PC-3 57.3 µM | SF-539 19.2 µM | SK-MEL-5 71.1 µM | SNB-19 24.3 µM | SNB-75 25.8 µM | SW-620 64.4 µM | U-251 29.3 µM | UO-31 23.2 µM

COc1cccc(C2c3cc4c(cc3OC(C)(N3CCCC3)C2C)OCO4)c1OC (stereo unspecified)
inactive: 786-0 14.5 µM | ACHN 3.83 µM | COLO 205 7.67 µM | HL-60 4.91 µM | HOP-62 14.3 µM | HOP-92 14.3 µM | MDA-MB-435 14.8 µM | NCI-H226 14.4 µM | NCI-H522 13.9 µM | NCI/ADR-RES 7.46 µM | OVCAR-8 10.8 µM | PC-3 5.11 µM | SK-MEL-5 13.4 µM | SNB-19 22.8 µM | SNB-75 8.89 µM | SW-620 6.89 µM | U-251 5.25 µM | UO-31 6.41 µM

CC(C)(C)OC(=O)NC(Cc1ccc(OCc2ccccc2)cn1)C(=O)N1CCCC1 (stereo unspecified)
inactive: 786-0 > 100 µM | ACHN > 100 µM | COLO 205 68.9 µM | HL-60 49.1 µM | HOP-62 23.5 µM | HOP-92 > 100 µM | MDA-MB-435 53.7 µM | NCI-H522 35.3 µM | NCI/ADR-RES 25.1 µM | OVCAR-8 40.6 µM | PC-3 33.4 µM | SF-539 23.2 µM | SK-MEL-5 19.3 µM | SNB-19 > 100 µM | SNB-75 77.3 µM | SW-620 > 100 µM | U-251 86.7 µM | UO-31 > 100 µM

c1ccc(C(Oc2noc3ccccc23)c2ccccc2)cc1
inactive: 786-0 48.8 µM | ACHN 51.3 µM | COLO 205 16.9 µM | HL-60 23.4 µM | HOP-62 88.5 µM | HOP-92 35.6 µM | MDA-MB-435 20.3 µM | NCI-H226 50.2 µM | NCI-H522 26.1 µM | NCI/ADR-RES 30.8 µM | OVCAR-8 45.3 µM | PC-3 34.4 µM | SK-MEL-5 18.7 µM | SNB-19 46 µM | SNB-75 12.6 µM | SW-620 30.8 µM | U-251 31.7 µM | UO-31 39.5 µM

C[C@H](C1CC(C)(O)C(C)(O)C(O)O1)[C@H]1CC[C@H]2[C@@H]3[C@@H]4O[C@@H]4[C@@]4(O)CC=CC(=O)[C@]4(C)[C@H]3CC[C@]12C (stereo partly specified)
inactive: 786-0 15.5 µM | ACHN 45.4 µM | COLO 205 > 50 µM | HL-60 > 50 µM | HOP-62 27.8 µM | HOP-92 33.6 µM | MDA-MB-435 > 50 µM | NCI-H226 22.9 µM | NCI-H522 18.2 µM | NCI/ADR-RES > 50 µM | OVCAR-8 30.4 µM | PC-3 > 50 µM | SK-MEL-5 > 50 µM | SNB-19 > 50 µM | SNB-75 20.9 µM | SW-620 > 50 µM | U-251 > 50 µM | UO-31 7.55 µM

Cc1ccc2c(/C=C/c3ccc(N(C)C)cc3)ccc(C(C)C)cc1-2
inactive: 786-0 > 100 µM | ACHN > 100 µM | COLO 205 > 100 µM | HL-60 12.9 µM | HOP-62 > 100 µM | HOP-92 76.4 µM | MDA-MB-435 > 100 µM | NCI-H226 > 100 µM | NCI-H522 99.3 µM | NCI/ADR-RES > 100 µM | OVCAR-8 > 100 µM | PC-3 > 100 µM | SK-MEL-5 22 µM | SNB-75 > 100 µM | SW-620 > 100 µM | U-251 > 100 µM | UO-31 > 100 µM

C=C1C(=O)OC2CC(=C)C3CC=C(C)C3CC12 (stereo unspecified)
inactive: 786-0 15.7 µM | ACHN 18.7 µM | COLO 205 17.9 µM | HL-60 18.3 µM | HOP-62 47 µM | HOP-92 10.5 µM | MDA-MB-435 15.7 µM | NCI-H226 15.6 µM | NCI-H522 14.4 µM | NCI/ADR-RES 35.5 µM | OVCAR-8 35.9 µM | PC-3 14.9 µM | SF-539 38.1 µM | SK-MEL-5 27 µM | SNB-19 22.9 µM | SW-620 15.7 µM | U-251 15.3 µM | UO-31 15.9 µM

N#Cc1c(-c2ccccc2)[nH]c2ccccc2c1=O
inactive: 786-0 > 100 µM | ACHN > 100 µM | COLO 205 > 100 µM | HL-60 90.4 µM | HOP-62 27.7 µM | HOP-92 > 100 µM | MDA-MB-435 17.4 µM | NCI-H226 41.6 µM | NCI/ADR-RES > 100 µM | OVCAR-8 97.9 µM | PC-3 > 100 µM | SF-539 > 100 µM | SK-MEL-5 66.7 µM | SNB-19 22.8 µM | SNB-75 15.1 µM | SW-620 91 µM | UO-31 > 10 µM
